Measurements taken from publication PMC8516952, “Two triterpenoids from Rubus fraxinifolius leaves and their tyrosinase and elastase inhibitory activities” (Scientific Reports, 2021).
Values after ≈ are worked out from the molar mass of the structure shown.

How the values were obtained:
[1] = molecular target: porcine pancreatic elastase (Sus scrofa, UniProt P00772)
mushroom tyrosinase = assay: Tyrosinase inhibition assay (DOPA-chrome formation method); format: biochemical, Agaricus bisporus
Procedure: Tyrosinase inhibition was determined using the DOPA-chrome formation method as described previously with slight modifications. […] They were preincubated for 10 min at room temperature. Reactions were initiated by adding 4 μL aliquots of 10 mM L-DOPA to each well and incubating at 37 °C for 20 min. Tyrosinase activity was then determined by measuring absorbance at 475 nm. […] Experiments were performed in triplicate.

elastase = conditions: cited from earlier work

Chain of porcine pancreatic elastase (P00772 27-266): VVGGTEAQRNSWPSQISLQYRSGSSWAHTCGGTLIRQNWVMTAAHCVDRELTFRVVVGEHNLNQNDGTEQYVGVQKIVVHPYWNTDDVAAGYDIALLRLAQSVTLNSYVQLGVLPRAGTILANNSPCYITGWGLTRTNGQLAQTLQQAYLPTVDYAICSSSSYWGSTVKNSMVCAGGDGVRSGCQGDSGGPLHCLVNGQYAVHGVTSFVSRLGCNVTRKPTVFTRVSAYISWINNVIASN

| IC50 [1] | Activity as tyrosinase inhibitors (in words) (mushroom tyrosinase) | IC50 tyrosinase inhibition (mushroom tyrosinase) | SMILES | IC50 elastase inhibition (previous studies) (elastase) |
| --- | --- | --- | --- | --- |
| 224 µM | moderate activities | 207.79 µg/mL (≈ 381 µM) | C[C@@H]1CC[C@]2(C(=O)O)CCC3(C)C(=CCC4C3(C)CCC3C(C)(C(=O)O)[C@H]5OCCO[C@@H]5C[C@@]34C)C2[C@]1(C)O (stereo partly shown) [Compound 1, 2,3-O-ethylene glycol, 19-hydroxyurs-12-en-23,28-dioic acid] |  |
| 186 µM | moderate activities | 221.51 µg/mL (≈ 419 µM) | C[C@@H]1CC[C@]2(C(=O)O)CCC3(C)C(=CCC4C3(C)CCC3C(C)(C)[C@H]5OCCCO[C@@H]5C[C@@]34C)C2[C@]1(C)O (stereo partly shown) [Compound 2, 2,3-O-Propanediol, 19-hydroxyurs-12-en-28-oic acid] |  |
|  |  |  | C[C@H]1[C@H](C)CC[C@]2(C(=O)O)CC[C@]3(C)C(=CC[C@@H]4[C@@]5(C)CC[C@H](O)C(C)(C)[C@@H]5CC[C@]43C)[C@H]12 [ursolic acid] | 31.0 µg/mL (≈ 67.9 µM) |
